Assays:
[1] = system: SAOS-2; assay: Anticancer activity against p53-deleted human Saos2 cells assessed as inhibition of cell viability measured after 5 days by MTT assay; settings: SAOS-2, 120 h
[2] = system: U2OS; assay: Anticancer activity against human U2OS cells expressing wild-type p53 assessed as inhibition of cell viability measured after 5 days by MTT assay; settings: 120 h

## CC1(C)[C@H]2CC[C@@]1(C)C(NC(=O)C(c1c(C(=O)O)[nH]c3cc(Cl)ccc13)N(C=O)Cc1ccc(OCc3ccccc3Br)cc1)C2 (some centres not stated)
[1]
  EC50: 60 µM
[2]
  EC50: 40 µM
